Reference: patent US10315999B2, “Processes for the preparation of pesticidal compounds” (Dow AgroSciences LLC, priority 2013, dated 2019)
Counter-ions that a name gives are not always drawn. Like-named read-outs stand apart in the source and are kept apart here.

Legend:
[1] = tested on: Sweetpotato Whitefly Crawler (Bemisia tabaci) (BEMITA); experiment: Bioassay on Sweetpotato Whitefly Crawler, cotton plant foliar spray; format: in vivo; details: read-out: BEMITA rating (% Control of Mortality, Abbott corrected)
Description: Cotton plants grown in 3-inch pots, with 1 small (3-5 cm) true leaf, were used at test substrate. The plants were placed in a room with whitely adults. Adults were allowed to deposit eggs for 2-3 days. After a 2-3 day egg-laying period, plants were taken from the adult whitefly room. Adults were blown off leaves using a hand-held Devilbliss sprayer (23 psi). Plants with egg infestation (100-300 eggs per plant) were placed in a holding room for 5-6 days at 82° F. and 50% RH for egg hatch and crawler stage to develop. Four cotton plants were used for each treatment. Compounds (2 mg) were dissolved in 1 mL of acetone solvent, forming stock solutions of 2000 ppm. The stock solutions were diluted 10× with 0.025% Tween 20 in water to obtain a test solution at 200 ppm. A hand-held Devilbliss sprayer was used for spraying a solution to both sides of cotton leaf until runoff. Reference plants (solvent check) were sprayed with the diluent only. Treated plants were held in a holding room for 8-9 days at approximately 82° F. and 50% RH prior to grading. Evaluation was conducted by counting the number of live nymphs per plant under a microscope.

[2] = tested on: Green Peach Aphid (Myzus persicae) (MYZUPE); experiment: Bioassay on Green Peach Aphid (GPA), cabbage seedling foliar spray; format: in vivo; details: 72 h, read-out: MYZUPE rating (% Control of Mortality, Abbott corrected)
Description: Several molecules disclosed herein were tested against GPA using procedures described below.
Cabbage seedling grown in 3-in pots, with 2-3 small (3-5 cm) true leaves, were used as test substrate. The seedlings were infested with […] (wingless adult and nymph stages) one day prior to chemical application. Four pots with individual seedlings were used for each treatment. Test compounds (2 mg) were dissolved in 2 mL of acetone/MeOH (1:1) solvent, forming stock solutions of 1000 ppm test compound. The stock solutions were diluted 5× with 0.025% Tween 20 in water to obtain the solution at 200 ppm test compound. A hand-held aspirator-type sprayer was used for spraying a solution to both sides of the cabbage leaves until runoff. Reference plants (solvent check) were sprayed with the diluent only containing 20% by volume acetone/MeOH (1:1) solvent. Treated plants were held in a holding room for three days at approximately 25° C. and ambient relative humidity (RH) prior to grading. Evaluation was conducted by counting the number of live aphids per plant under a microscope. Percent Control was measured by using Abbott's correction formula (W. S. Abbott, “A Method of Computing the Effectiveness of an Insecticide” J. Econ. Entomol 18 (1925), pp. 265-267) as follows. Corrected % Control=100*(X−Y)/X • where • X=No. of live aphids on solvent check plants and • Y=No. of live aphids on treated plants
The results are indicated in the table entitled “Table 1: GPA (MYZUPE) and sweetpotato whitefly-crawler (BEMITA) Rating Table”.

[3] = 200 ppm spray on cotton plants, live nymphs counted after 8-9 days
[4] = 200 ppm spray on cabbage seedlings, live aphids counted after three days

Question: Which mortality at 200 ppm [1] does the source give for Nc1c[nH]nc1Cl [Compound 1a, 3-Chloro-1H-pyrazol-4-amine hydrochloride] here?
Answer: The mortality at 200 ppm was 0 to 80%.

Question: And the mortality at 200 ppm [2]?
Answer: Its mortality at 200 ppm is 0 to 80%.

Question: With CC(=O)Nc1c[nH]nc1Cl [Compound 1b, N-(3-Chloro-1H-pyrazol-4-yl)acetamide] as the molecule, how does the mortality at 200 ppm [1, 3] read?
Answer: The mortality at 200 ppm was 0 to 80%.

Question: And the mortality at 200 ppm [2, 4]?
Answer: The mortality at 200 ppm was 0 to 80%.

Question: CC(=O)Nc1cn(-c2cccnc2)nc1Cl [Compound 1c, N-(3-Chloro-1-(pyridin-3-yl)-1H-pyrazol-4-yl)acetamide] was tested. Which mortality at 200 ppm [1, 3] did it give?
Answer: Its mortality at 200 ppm is 0 to 80%.

Question: What about the mortality at 200 ppm [2, 4] of the same molecule?
Answer: The mortality at 200 ppm was 0 to 80%.

Question: Which mortality at 200 ppm [1, 3] does the source give for CCNc1cn(-c2cccnc2)nc1Cl [Compound 1d, 3-Chloro-N-ethyl-1-(pyridin-3-yl)-1H-pyrazol-amine] here?
Answer: Its mortality at 200 ppm is 0 to 80%.

Question: And the mortality at 200 ppm [2, 4]?
Answer: The mortality at 200 ppm was 0 to 80%.

Question: Which results are given for CCN(C(=O)CCSCCC(F)(F)F)c1cn(-c2cccnc2)nc1Cl [Compound 5.1, N-(3-Chloro-1-(pyridin-3-yl)-1H-pyrazol-4-yl)-N-ethyl-3-((3,3,3-trifluoropropyl)thio)propanamide]?
Answer: mortality at 200 ppm [1, 3]: 80 to 100%; mortality at 200 ppm [2, 4]: 80 to 100%

Question: Which mortality at 200 ppm [1, 3] does the source give for CCN(C(=O)CC[S+]([O-])CCC(F)(F)F)c1cn(-c2cccnc2)nc1Cl (stereo not drawn) [Compound 8.1, N-(3-Chloro-1-(pyridin-3-yl)-1H-pyrazol-4-yl)-N-ethyl-3-((3,3,3-trifluoropropyl)sulfoxo)propanamide] here?
Answer: The mortality at 200 ppm was 80 to 100%.

Question: What about the mortality at 200 ppm [2, 4] of the same molecule?
Answer: The mortality at 200 ppm was 80 to 100%.
